Legend:
[1] = molecular target: T1, HLA-A2 molecule (Homo sapiens, UniProt P04439, D140Y/D185E/D98H/E176V/E277Q/G131W/G231S/I119V/I121R/I166T/I218V/L300P/L318F/N151K/N90K/P208A/P217A/Q86G/Q94H/R138H/R169H/T345S); assay: T2 binding assay (fluorescence index, FI); conditions: T2 cells, peptide 50 μg/mL, human β2-microglobulin 3 µg/mL, 37°C 18 h, anti-HLA-A2 BB7.2 PE-cy7, flow cytometry; class by FI
T1 construct: The T2 cell line (HLA-A2) was supplied by Professor Yuzhang Wu; endogenous in cells; host or cells: T2 cell line (HLA-A2); exogenous human β2-microglobulin from Merck
Description: The T2 binding assay was used to determine the binding affinity of the candidate peptides and HLA-A2 molecule by using a previously described protocol ([27]). The T2 cell line (HLA-A2) was supplied by Professor Yuzhang Wu (Third Military Medical University, Chongqing, China). […] The T2 cells were washed twice and incubated with the anti-human HLA-A2-PE-cy7 antibody (BB7.2, eBioscience, USA) at 4°C for 30 min. The mean fluorescence intensity (FI) of each group was analyzed by flow cytometry (FACSCalibur, Becton-Dickinson, USA). Based on the FI, the binding affinity of the candidate peptides toward HLA-A2 molecule was calculated by FI =a−b/b where a is the mean PE-cy7 FI with the peptide and b is the mean PE-cy7 FI without the peptide.

[2] = test system: CD3+CD8+ T cells from HLA-A2+ healthy donors; assay: ICS assay for immunogenicity: IFN-γ production of CD3+CD8+ T cells from peptide-stimulated PBMCs; type: cell-based, human; conditions: for Immunogenicity: response ratio of each peptide in five donors: percentages of IFN-γ+-secreting CD8+ T cells higher than negative control, PBMCs stimulated 10 μg/mL once-weekly 3 weeks
Description: We determined whether the high-binding affinity peptides elicited a T cell response in peripheral blood samples from five HLA-A2^+ healthy donors. The blood samples were obtained from Henan Red Cross Blood Center (Zhengzhou, China) with the approval of the Institutional Ethics Review Board. All research was performed under the approval of the Ethics Committee of Zhengzhou University. An ICS assay was used to quantify IFN-γ production of CD3^+CD8^+ T cells. Peripheral blood mononuclear cells (PBMCs) were stimulated by each peptide (10 μg/mL) once-weekly for 3 weeks according to our previous work ([59]). On day 21, the induced T cells from the PBMCs were used as effector cells, and T2 cells were incubated with the synthesized peptides (50 μg/mL) for 4 h as the stimulator cells. The effector cells (1 × 10^6) and stimulator cells (1 × 10^6) were co-incubated for 3 h, and brefeldin A (2 μg/mL, Sigma-Aldrich, USA) was added to block the release of produced cytokines for another 5 h at 37°C and 5% CO2. The cells were washed and stained with eFlour 710 labeled anti-human CD3 antibody and APC-labeled anti-human CD8 antibody (eBioscience) for 30 min at 4°C before fixation and permeabilization. Permeabilized cells were intracellularly stained with the PE-labeled anti-human IFN-γ antibody (BioLegend, Inc., USA) for 30 min on ice in the dark. Cells were resuspended in buffer for acquisition and analysis using a flow cytometer (FACSCalibur, Becton Dickinson).
Next, we examined the T cell responses of the 13 synthesized peptides with high binding affinity by detecting the percentages of IFN-γ^+ CD8^+ T cells from five HLA-A2^+ healthy donors. A higher percentage of IFN-γ^+ CD8^+ T cells in the total CD8^+ T cell population than that of the negative control indicated an immunogenic peptide. In donor 1, 12 were immunogenic ( Figure 5B ); in donor 2, eight peptides were immunogenic ( Figure 5C ); in donor 3, 10 peptides were immunogenic ( Figure 5D ); in donor 4, six peptides were immunogenic ( Figure 5E ); and in donor 5, 12 peptides were immunogenic ( Figure 5F ). […] In other words, any of the 13 high-affinity peptides could stimulate a T lymphocyte response in at least one donor ( Figures 5G, H ).

[3] = test system: T cell response; set-up: method as in PMID 29720506, PMID 15564450, PMID 18753217, PMID 21883919, PMID 11984506; conditions: pairs with only one amino acid different at P3; ref [62]–[66]; cited from earlier work

Binding [1]	Sequence	Immunogenicity: response ratio of each peptide in five donors [2]	T cell response in donors ([2]; IFN-γ+ CD8+ T cells, five HLA-A2+ healthy donors)	Immunogenicity (immunogenic / non-immunogenic) [3]
++ (FI ≥ 1.5)	ALDEKVAEL [CT-X candidate nonamer predicted by POTN, synthesized]	4/5	–	–
+ (FI ≥ 0.5 to < 1.5)	FLAMLKNTV [CT-X candidate nonamer predicted by POTN, synthesized]	–	–	–
++ (FI ≥ 1.5)	FIDKLVESV [CT-X candidate nonamer predicted by POTN, synthesized]	5/5	–	–
+ (FI ≥ 0.5 to < 1.5)	ALSVMGVYV [CT-X candidate nonamer predicted by POTN, synthesized]	–	–	–
++ (FI ≥ 1.5)	KLSSIIPSA [CT-X candidate nonamer predicted by POTN, synthesized]	1/5	only elicited a response in donor 5	–
–	QLCDVMFYL [literature peptide of a P3 pair]	–	–	immunogenic
+ (FI ≥ 0.5 to < 1.5)	KVAELVHFL [CT-X candidate nonamer predicted by POTN, synthesized]	–	–	–
++ (FI ≥ 1.5)	TLDEKVAEL [CT-X candidate nonamer predicted by POTN, synthesized]	5/5	–	–
++ (FI ≥ 1.5)	ILDRANQSV [CT-X candidate nonamer predicted by POTN, synthesized]	3/5	–	–
++ (FI ≥ 1.5)	SIDDLSFYV [CT-X candidate nonamer predicted by POTN, synthesized]	4/5	–	–
++ (FI ≥ 1.5)	AMASASPSV [CT-X candidate nonamer predicted by POTN, synthesized]	3/5	–	–
++ (FI ≥ 1.5)	KMAGELIKI [CT-X candidate nonamer predicted by POTN, synthesized]	4/5	–	–
++ (FI ≥ 1.5)	YLATADMPA [CT-X candidate nonamer predicted by POTN, synthesized]	3/5	–	–
+ (FI ≥ 0.5 to < 1.5)	VLSAVTPEL [CT-X candidate nonamer predicted by POTN, synthesized]	–	–	–
–	EVREKHEFL [literature peptide of a P3 pair]	–	–	non-immunogenic
- (FI < 0.5)	FLSKLSSII [CT-X candidate nonamer predicted by POTN, synthesized]	–	–	–
++ (FI ≥ 1.5)	TLDQVLDEV [CT-X candidate nonamer predicted by POTN, synthesized]	5/5	–	–
+ (FI ≥ 0.5 to < 1.5)	VLSNVLSGL [CT-X candidate nonamer predicted by POTN, synthesized]	–	–	–
+ (FI ≥ 0.5 to < 1.5)	KVAKLVHFL [CT-X candidate nonamer predicted by POTN, synthesized]	–	–	–
–	QLRDVMFYL [literature peptide of a P3 pair]	–	–	non-immunogenic
+ (FI ≥ 0.5 to < 1.5)	FLAKLNNTV [CT-X candidate nonamer predicted by POTN, synthesized; also in training set]	–	–	–
++ (FI ≥ 1.5)	VLSTAPPQL [CT-X candidate nonamer predicted by POTN, synthesized]	4/5	–	–
–	EVKEKHEFL [literature peptide of a P3 pair]	–	–	immunogenic
++ (FI ≥ 1.5)	LMDVQIPTA [CT-X candidate nonamer predicted by POTN, synthesized]	5/5	–	–
++ (FI ≥ 1.5)	ALSTVLPGL [CT-X candidate nonamer predicted by POTN, synthesized]	2/5	–	–
+ (FI ≥ 0.5 to < 1.5)	KVADLIHFL [CT-X candidate nonamer predicted by POTN, synthesized]	–	–	–

From PMC7579403, “POTN: A Human Leukocyte Antigen-A2 Immunogenic Peptides Screening Model and Its Applications in Tumor Antigens Prediction” (Frontiers in Immunology, 2020)
